Target: Aβ42 (Homo sapiens, UniProt P05067)
Assay: Th-T (thioflavin-T) assay of Aβ42 aggregation
Type: biochemical
Conditions: for Th-T fluorescence of Aβ42 with compound, mean of three wells (Fig. 7a source data): concentration 50, unit not given

Chain of Aβ42 (P05067 672-713): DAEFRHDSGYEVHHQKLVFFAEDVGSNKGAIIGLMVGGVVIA

Compound: C=C1CC[C@@H]2[C@](C)(CC[C@H]3O[C@H](C=C(C)C)C[C@@]23C)[C@@H]1Cc1c(OC)oc(CO)c(C)c1=O [Compound 20]
- Th-T fluorescence of Aβ42 with compound, mean of three wells (Fig. 7a source data) (time-course reading M143): 2.125
- Th-T fluorescence of Aβ42 with compound, mean of three wells (Fig. 7a source data) (time-course reading M144): 2.117
- Th-T fluorescence of Aβ42 with compound, mean of three wells (Fig. 7a source data) (time-course reading M145): 2.122
- Th-T fluorescence of Aβ42 (sheet Fig. 7a), mean of three wells (head suffix _10 (concentration 10), reading M63): 3.458
- Th-T fluorescence of Aβ42 (sheet Fig. 7a), mean of three wells (head suffix _10 (concentration 10), reading M64): 3.444
- Th-T fluorescence of Aβ42 (sheet Fig. 7a), mean of three wells (head suffix _10 (concentration 10), reading M65): 3.449
- Th-T fluorescence of Aβ42 (sheet Fig. 7a), mean of three wells (head suffix _10 (concentration 10), reading M66): 3.444
- Th-T fluorescence of Aβ42 (sheet Fig. 7a), mean of three wells (head suffix _10 (concentration 10), reading M67): 3.437
- Th-T fluorescence of Aβ42 (sheet Fig. 7a), mean of three wells (head suffix _10 (concentration 10), reading M68): 3.439
- Th-T fluorescence of Aβ42 (sheet Fig. 7a), mean of three wells (head suffix _10 (concentration 10), reading M69): 3.4039
- Th-T fluorescence of Aβ42 (sheet Fig. 7a), mean of three wells (head suffix _10 (concentration 10), reading M70): 3.402
- Th-T fluorescence of Aβ42 (sheet Fig. 7a), mean of three wells (head suffix _10 (concentration 10), reading M71): 3.423
- Th-T fluorescence of Aβ42 (sheet Fig. 7a), mean of three wells (head suffix _10 (concentration 10), reading M72): 3.425
- Th-T fluorescence of Aβ42 (sheet Fig. 7a), mean of three wells (head suffix _10 (concentration 10), reading M73): 3.414
- Th-T fluorescence of Aβ42 (sheet Fig. 7a), mean of three wells (head suffix _10 (concentration 10), reading M74): 3.412
- Th-T fluorescence of Aβ42 (sheet Fig. 7a), mean of three wells (head suffix _10 (concentration 10), reading M75): 3.393
- Th-T fluorescence of Aβ42 (sheet Fig. 7a), mean of three wells (head suffix _10 (concentration 10), reading M76): 3.416
- Th-T fluorescence of Aβ42 (sheet Fig. 7a), mean of three wells (head suffix _10 (concentration 10), reading M77): 3.391
- Th-T fluorescence of Aβ42 (sheet Fig. 7a), mean of three wells (head suffix _10 (concentration 10), reading M78): 3.393
- Th-T fluorescence of Aβ42 (sheet Fig. 7a), mean of three wells (head suffix _10 (concentration 10), reading M79): 3.378
- Th-T fluorescence of Aβ42 (sheet Fig. 7a), mean of three wells (head suffix _10 (concentration 10), reading M80): 3.379
- Th-T fluorescence of Aβ42 (sheet Fig. 7a), mean of three wells (head suffix _10 (concentration 10), reading M81): 3.38
- Th-T fluorescence of Aβ42 (sheet Fig. 7a), mean of three wells (head suffix _10 (concentration 10), reading M82): 3.375
- Th-T fluorescence of Aβ42 (sheet Fig. 7a), mean of three wells (head suffix _10 (concentration 10), reading M83): 3.373
- Th-T fluorescence of Aβ42 (sheet Fig. 7a), mean of three wells (head suffix _10 (concentration 10), reading M84): 3.355
- Th-T fluorescence of Aβ42 (sheet Fig. 7a), mean of three wells (head suffix _20 (concentration 20), reading M63): 3.439
- Th-T fluorescence of Aβ42 (sheet Fig. 7a), mean of three wells (head suffix _20 (concentration 20), reading M64): 3.419
- Th-T fluorescence of Aβ42 (sheet Fig. 7a), mean of three wells (head suffix _20 (concentration 20), reading M65): 3.416
- Th-T fluorescence of Aβ42 (sheet Fig. 7a), mean of three wells (head suffix _20 (concentration 20), reading M66): 3.432
- Th-T fluorescence of Aβ42 (sheet Fig. 7a), mean of three wells (head suffix _20 (concentration 20), reading M67): 3.438
- Th-T fluorescence of Aβ42 (sheet Fig. 7a), mean of three wells (head suffix _20 (concentration 20), reading M68): 3.449
- Th-T fluorescence of Aβ42 (sheet Fig. 7a), mean of three wells (head suffix _20 (concentration 20), reading M69): 3.405
- Th-T fluorescence of Aβ42 (sheet Fig. 7a), mean of three wells (head suffix _20 (concentration 20), reading M70): 3.395
- Th-T fluorescence of Aβ42 (sheet Fig. 7a), mean of three wells (head suffix _20 (concentration 20), reading M71): 3.403
- Th-T fluorescence of Aβ42 (sheet Fig. 7a), mean of three wells (head suffix _20 (concentration 20), reading M72): 3.419
- Th-T fluorescence of Aβ42 (sheet Fig. 7a), mean of three wells (head suffix _20 (concentration 20), reading M73): 3.421
- Th-T fluorescence of Aβ42 (sheet Fig. 7a), mean of three wells (head suffix _20 (concentration 20), reading M74): 3.387
- Th-T fluorescence of Aβ42 (sheet Fig. 7a), mean of three wells (head suffix _20 (concentration 20), reading M75): 3.3567
- Th-T fluorescence of Aβ42 (sheet Fig. 7a), mean of three wells (head suffix _20 (concentration 20), reading M76): 3.391
- Th-T fluorescence of Aβ42 (sheet Fig. 7a), mean of three wells (head suffix _20 (concentration 20), reading M77): 3.3972
- Th-T fluorescence of Aβ42 (sheet Fig. 7a), mean of three wells (head suffix _20 (concentration 20), reading M78): 3.402
- Th-T fluorescence of Aβ42 (sheet Fig. 7a), mean of three wells (head suffix _20 (concentration 20), reading M79): 3.362
- Th-T fluorescence of Aβ42 (sheet Fig. 7a), mean of three wells (head suffix _20 (concentration 20), reading M80): 3.347
- Th-T fluorescence of Aβ42 (sheet Fig. 7a), mean of three wells (head suffix _20 (concentration 20), reading M81): 3.353
- Th-T fluorescence of Aβ42 (sheet Fig. 7a), mean of three wells (head suffix _20 (concentration 20), reading M82): 3.387
- Th-T fluorescence of Aβ42 (sheet Fig. 7a), mean of three wells (head suffix _20 (concentration 20), reading M83): 3.377
- Th-T fluorescence of Aβ42 (sheet Fig. 7a), mean of three wells (head suffix _20 (concentration 20), reading M84): 3.32
- Th-T fluorescence of Aβ42 (sheet Fig. 7a), mean of three wells (head suffix _50 (concentration 50), reading M63): 2.073
- Th-T fluorescence of Aβ42 (sheet Fig. 7a), mean of three wells (head suffix _50 (concentration 50), reading M64): 2.076
- Th-T fluorescence of Aβ42 (sheet Fig. 7a), mean of three wells (head suffix _50 (concentration 50), reading M65): 2.0862
- Th-T fluorescence of Aβ42 (sheet Fig. 7a), mean of three wells (head suffix _50 (concentration 50), reading M66): 2.098
- Th-T fluorescence of Aβ42 (sheet Fig. 7a), mean of three wells (head suffix _50 (concentration 50), reading M67): 2.131
- Th-T fluorescence of Aβ42 (sheet Fig. 7a), mean of three wells (head suffix _50 (concentration 50), reading M68): 2.106
- Th-T fluorescence of Aβ42 (sheet Fig. 7a), mean of three wells (head suffix _50 (concentration 50), reading M69): 2.087
- Th-T fluorescence of Aβ42 (sheet Fig. 7a), mean of three wells (head suffix _50 (concentration 50), reading M70): 2.078
- Th-T fluorescence of Aβ42 (sheet Fig. 7a), mean of three wells (head suffix _50 (concentration 50), reading M71): 2.105
- Th-T fluorescence of Aβ42 (sheet Fig. 7a), mean of three wells (head suffix _50 (concentration 50), reading M72): 2.132
